In the assay the target is T1, h-GABAA α2β2γ1 (Homo sapiens, UniProt P47869+Q8N1C3).
T1 sequence (P47869 29-451): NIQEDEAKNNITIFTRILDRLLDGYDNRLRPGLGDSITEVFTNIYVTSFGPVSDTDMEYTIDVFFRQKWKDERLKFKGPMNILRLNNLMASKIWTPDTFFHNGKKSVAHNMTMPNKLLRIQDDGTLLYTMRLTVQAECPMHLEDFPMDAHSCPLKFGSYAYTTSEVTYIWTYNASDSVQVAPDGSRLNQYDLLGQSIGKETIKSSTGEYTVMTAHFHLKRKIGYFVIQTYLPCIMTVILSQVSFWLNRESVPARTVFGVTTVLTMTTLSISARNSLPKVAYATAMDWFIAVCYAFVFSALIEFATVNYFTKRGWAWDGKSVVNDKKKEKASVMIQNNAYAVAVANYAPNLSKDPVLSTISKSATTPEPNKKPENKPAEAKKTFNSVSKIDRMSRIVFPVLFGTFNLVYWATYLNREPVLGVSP
T1 sequence (P47870 25-512 partner limits assumed): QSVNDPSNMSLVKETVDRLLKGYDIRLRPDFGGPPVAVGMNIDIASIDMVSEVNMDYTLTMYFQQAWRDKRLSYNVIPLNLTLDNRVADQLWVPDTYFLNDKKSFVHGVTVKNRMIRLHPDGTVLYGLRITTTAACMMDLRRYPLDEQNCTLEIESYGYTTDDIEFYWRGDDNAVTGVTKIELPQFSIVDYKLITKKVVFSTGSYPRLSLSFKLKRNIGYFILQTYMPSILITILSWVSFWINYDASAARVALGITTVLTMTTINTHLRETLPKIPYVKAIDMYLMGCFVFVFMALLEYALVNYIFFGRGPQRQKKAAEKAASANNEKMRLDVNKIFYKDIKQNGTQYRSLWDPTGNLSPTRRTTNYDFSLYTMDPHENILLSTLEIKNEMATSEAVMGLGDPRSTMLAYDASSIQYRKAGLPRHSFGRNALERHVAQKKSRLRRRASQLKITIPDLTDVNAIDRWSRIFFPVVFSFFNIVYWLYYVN
T1 sequence (Q8N1C3 36-465): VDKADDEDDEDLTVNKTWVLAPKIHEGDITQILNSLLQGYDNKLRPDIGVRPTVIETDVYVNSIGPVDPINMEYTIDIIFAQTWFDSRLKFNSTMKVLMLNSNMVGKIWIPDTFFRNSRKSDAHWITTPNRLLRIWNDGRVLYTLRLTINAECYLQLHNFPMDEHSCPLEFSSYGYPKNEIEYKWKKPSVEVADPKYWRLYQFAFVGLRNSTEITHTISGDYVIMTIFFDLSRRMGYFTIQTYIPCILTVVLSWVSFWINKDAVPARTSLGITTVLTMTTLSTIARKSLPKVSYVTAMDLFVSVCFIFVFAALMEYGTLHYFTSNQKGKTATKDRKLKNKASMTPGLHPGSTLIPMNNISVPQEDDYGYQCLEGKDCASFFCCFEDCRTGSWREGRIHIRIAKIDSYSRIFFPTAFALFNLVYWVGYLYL
Briefly: Two-electrode voltage clamp electrophysiology in Xenopus oocytes, modulation of GABA EC20 current. The assay is classed as cell-based. The arrangement: host or cells: Xenopus laevis oocytes, RNA micro-injection. The settings on record: for Efficacy (GABA)% / Fold increase h-GABA-A α2β2γ1 oocyte @ 30-fold Ki: Table 2; for Efficacy (GABA)%: % modulation of GABA EC20 = 100*(Fold increase−1), compound at approx. 30-fold Ki; for Fold increase h-GABA-A α2β2γ1 oocyte @ 30-fold Ki: compound at approx. 30-fold its Ki α2β2γ1, GABA EC20, Xenopus oocytes. The procedure, abridged:
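Oocytes injected with receptor subunit mRNA were recorded 3–5 days later by two-electrode voltage clamp at −80 mV, room temperature, pH 7.4. Compound was applied during a second GABA EC20 pulse, with at least 3 oocytes per concentration. Efficacy is the ratio-trace extremum, expressed as % modulation of GABA EC20.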

For `Fc1cccnc1C1=NCc2nnc(C3CC3)n2-c2ccc(Br)c(Cl)c21` [Example 77, 8-bromo-7-chloro-1-cyclopropyl-6-(3-fluoro-2-pyridyl)-4H-[1,2,4]triazolo[4,3-a][1,4]benzodiazepine], the “Efficacy (GABA)%” value came out at 66% and the “Fold increase h-GABA-A α2β2γ1 oocyte @ 30-fold Ki” value amounted to 1.66.

For `Cc1nnc2n1-c1ccc(C(F)(F)F)c(Cl)c1C(c1ncccc1F)=NC2` [Example 78, 7-chloro-6-(3-fluoro-2-pyridyl)-1-methyl-8-(trifluoromethyl)-4H-[1,2,4]triazolo[4,3-a][1,4]benzodiazepine], the “Efficacy (GABA)%” value is given as 103% and the “Fold increase h-GABA-A α2β2γ1 oocyte @ 30-fold Ki” value is listed as 2.03.

With `COc1ccc2c(c1Cl)C(c1c(F)cccc1F)=NCc1nnc(C3CC3)n1-2` [Example 79, 7-chloro-1-cyclopropyl-6-(2,6-difluorophenyl)-8-methoxy-4H-[1,2,4]triazolo[4,3-a][1,4]benzodiazepine], the “Efficacy (GABA)%” value amounted to 79% and the “Fold increase h-GABA-A α2β2γ1 oocyte @ 30-fold Ki” value is given as 1.79.

In the case of `COc1nnc2n1-c1ccc(Cl)c(Cl)c1C(c1c(F)cccc1F)=NC2` [Example 90, 7,8-dichloro-6-(2,6-difluorophenyl)-1-methoxy-4H-[1,2,4]triazolo[4,3-a][1,4]benzodiazepine], the “Efficacy (GABA)%” value is recorded as 65% and the “Fold increase h-GABA-A α2β2γ1 oocyte @ 30-fold Ki” value came to 1.65.

With `CO[C@H]1C[C@H](c2nnc3n2-c2ccc(Cl)c(Cl)c2C(c2c(F)cccc2F)=NC3)C1` [Example 91, trans-7,8-dichloro-6-(2,6-difluorophenyl)-1-(3-methoxycyclobutyl)-4H-[1,2,4]triazolo[4,3-a][1,4]benzodiazepine], the “Efficacy (GABA)%” value turned out to be 58% and the “Fold increase h-GABA-A α2β2γ1 oocyte @ 30-fold Ki” value is 1.58.

For `Fc1cccc(F)c1C1=NCc2nnc(-c3cccnn3)n2-c2ccc(Br)c(Cl)c21` [Example 104, 8-bromo-7-chloro-6-(2,6-difluorophenyl)-1-pyridazin-3-yl-4H-[1,2,4]triazolo[4,3-a][1,4]benzodiazepine], the “Efficacy (GABA)%” value was found to be 94% and the “Fold increase h-GABA-A α2β2γ1 oocyte @ 30-fold Ki” value is on record as 1.94.

In the case of `Cc1ncc2n1-c1ccc(Cl)cc1C(c1ccccc1F)=NC2` [Midazolam, reference compound], where the note is “α2β2γ1 GABAA receptor subtype expressing oocytes, reference PAMs”, the “potentiation of the GABA-induced current” value is given as approximately 60%.
